Patent US5780008A, “Polyhdric phenol compounds” (Mallinckrodt Medical, Inc., priority 1997, dated 1998)

Legend:
[1] = test system: hexokinase; assay: hexokinase-model: inhibition of hexokinase catalysed 6-phosphorilation of glucose; type: biochemical
Text: The "hexokinase-model" is used as a model system for the glucose-transport proteins, which play a paramount role in the glucose metabolism.

[2] = test system: YAK1 mice lymphoma cells; assay: binding of 3-125I-phloretin to YAK1 lymphoma cancer cells
Procedure: (§1) In order to be able to compare the binding to cancer cells with the binding to normal cells, the following experiments are carried out. Binding to certain cancer cells, viz. YAK1 mice lymphoma cells (10^6 cells/ml incubation medium) is compared with binding to erythrocytes of a young healthy person (10^6 cells/ml incubation medium), because erythocytes are typical reference cells for glucose transport studies.
(§2) The incubation media are respectively:
(§3) RPMI buffer pH=8; 11 mM in glucose, and
(§4) RPMI buffer/0.9% NaCl : 1/1.
(§5) Each 1 ml essay contains 5% of foetal calf serum and is spiked (50 μl) with 3-^125 I-phloretin (initial activity is measured). After 15 min incubation at 37° C., the suspension is centrifuged and the precipitate is resuspended with 1 ml cold buffer which is discarded after a second centrifugation. The final radioactive precipitate is suspended in 1 ml water and measured. The bound radioactivity is related to the initial activity.

[3] = test system: erythrocytes; assay: binding of 3-125I-phloretin to erythrocytes; design: species or system human
Procedure: as §1, §2, §3, §4, §5
Saturation binding of 3-^125 I-phloretin to 5.10^6 erythrocytes is performed in RPMI-buffer and Tris-buffer of pH 8. The binding experiments are performed at pH 8, because this is the pH of the RPMI buffer needed for optimum YAK1 cells growth. Incubation for 15 min at 37° C. Inhibition is studied by pre-incubation (15 min, 37° C.) of the erythrocytes in buffer containing 2.10^-4 M 3-Br-phloretin. After centrifugation, the Br-phloretin--containing solution is discarded and the precipitate washed with ice-cooled buffer. After a second centrifugation, the supernatant is discarded and the cells are resuspended in buffer containing 3-^125 I-phloretin. After incubation for 15 min at 37° C., the same above procedure is applied.
Phloretin is a weak acid (pK is approx. 7.3); only the uncharged (non-dissociated) form inhibits red cell glucose transport (Jennings et al., see above). Therefore the values mentioned hereinafter are corrected for dissociation.

[4] = in vivo distribution studies in rats
Procedure: The in vivo distribution in rats is determined by injecting approx. 10μCi of the compound to be evaluated into the tail vein of the test animals. The test animals are sacrificed at appropriate time intervals after injection and the radioactivity of the organs of interest is measured by gamma scintillation counting.

[5] = binding in human whole blood (RB/plasma distribution, reversibility); type: in vitro ADME
Procedure: Jennings et al. [J. Gen. Phys., […], 67, 381]have reported the binding of phloretin to whole red blood cells. Their results let to assume that phloretin should enter the erythrocytes and bind to haemoglobine. This should mean that a phloretin-based radiotracer should not be suitable for in vivo use. Therefore the reversibility of the binding is checked. For this purpose 3-^125 I-phloretin is added to whole heparinised blood. This is centrifuged, yielding serum S-*I and red blood portion RB-*I. S-*I and non-radioactive RB (1/1) and respectively non-radioactive S and RB-*I (1/1) are incubated at 37° C. for 15 min and centrifuged. The radioactivity of all the weighed aliquots is measured in a well NaI(Tl) detector.

For O=C(CCc1ccc(O)cc1)c1c(O)cc(O)cc1O [phloretin, reference compound], the “type of inhibition of hexokinase activity” value ([1]; from Lineweaver-Burck plots, with respect to glucose) was “competitive”.
In the case of O=C(CCc1ccc(O)c(Br)c1)c1c(O)cc(O)cc1O [3-Br-phloretin, 3-bromophloretin], the “decreased binding of 3-125I-phloretin to YAK1 cells” value ([2]; co-incubation of 3-Br-phloretin, 15 min) is reported as 30%, the “bound/free value of 3-125I-phloretin after pre-incubation with inhibitor” value ([3]; pre-incubation with 2×10^-4 M, 15 min 37° C., blank 0.193, average of 5 experiments) is reported as 0.081 and the “inhibition of 3-125I-phloretin binding to erythrocytes” value ([3]; pre-incubation with 2×10^-4 M, compared with blank) is reported as 58%.
With O=C(CCc1ccc(O)c(I)c1)c1c(O)cc(O)cc1O [3-I-phloretin] the “inhibition potency for hexokinase relative to the original phloretin” value ([1]; versus phloretin) was “approx. 2 times”.
In the case of O=C(CCc1ccc(O)c([125I])c1)c1c(O)cc(O)cc1O [3-^125 I-phloretin], the “increase of uptake to YAK1 lymphoma cancer cells as compared to erythrocytes” value ([2]; YAK1 cells versus erythrocytes) is reported as greater than 2 factor, the “uptake in the heart and muscle in the presence of Br-phloretin (C.A.)” value ([4]; C.A. versus N.C.A.) is reported as “decreased uptake” and the “uptake in the lungs (lung versus blood)” value ([4]; approx. 10μCi into the tail vein) is reported as “high uptake”. For the same compound, the “high affinity binding in the presence of serum albumine” value ([3]; at equilibrium) was “remains unchanged”, the “influence of glucose on binding” value ([3]; presence of 3.10^-3 -5.10^-3 M glucose) was “hardly influences” and the Bmax ([3]; saturation binding 0.1 to 1.2 10^-10 M, Scatchard plot, pH 8) was 4.7×10^-15 mol/10^6 erythrocytes. For the same compound, the “nature of binding to plasma-proteins and RB” value [5] was “bound reversibly”.
